Source: patent publication US12595248B2, “PRMT5 inhibitors” (Merck Sharp & Dohme LLC, priority 2019, dated 2026)

Legend:
[1] = target: T1, PRMT5-MEP50 enzyme complex (Homo sapiens, UniProt O14744); assay: PRMT5-MEP50 Enzyme Methylation Assay (Version A); format: biochemical
T1 construct: Full-length (FL)-PRMT5-MEP50 enzyme complex (recombinant proteins from baculovirus-transfected Sf21 cells: FL-PRMT5; MW=73837 kDa and FL-MEP50; MW=38614); made in house; host or cells: baculovirus-transfected Sf21 cells
T1 sequence (O14744 whole entry): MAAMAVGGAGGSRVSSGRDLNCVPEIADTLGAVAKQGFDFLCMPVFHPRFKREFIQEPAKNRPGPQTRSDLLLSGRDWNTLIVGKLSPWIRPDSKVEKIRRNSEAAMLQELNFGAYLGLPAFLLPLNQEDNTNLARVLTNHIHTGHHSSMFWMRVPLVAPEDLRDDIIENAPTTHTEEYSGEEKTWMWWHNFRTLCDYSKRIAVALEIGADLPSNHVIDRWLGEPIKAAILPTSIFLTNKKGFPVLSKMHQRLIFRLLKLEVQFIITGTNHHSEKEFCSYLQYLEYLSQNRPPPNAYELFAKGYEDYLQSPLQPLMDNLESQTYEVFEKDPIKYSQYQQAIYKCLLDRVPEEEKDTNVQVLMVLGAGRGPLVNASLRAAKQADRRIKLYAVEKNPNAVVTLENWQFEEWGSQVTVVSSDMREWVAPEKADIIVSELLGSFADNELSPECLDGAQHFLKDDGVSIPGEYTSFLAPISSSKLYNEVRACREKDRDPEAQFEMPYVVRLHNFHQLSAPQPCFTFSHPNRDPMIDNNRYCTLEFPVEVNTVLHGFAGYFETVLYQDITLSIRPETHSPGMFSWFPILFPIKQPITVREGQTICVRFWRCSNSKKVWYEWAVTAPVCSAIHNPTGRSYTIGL
T1 sequence (Q9BQA1 whole entry partner): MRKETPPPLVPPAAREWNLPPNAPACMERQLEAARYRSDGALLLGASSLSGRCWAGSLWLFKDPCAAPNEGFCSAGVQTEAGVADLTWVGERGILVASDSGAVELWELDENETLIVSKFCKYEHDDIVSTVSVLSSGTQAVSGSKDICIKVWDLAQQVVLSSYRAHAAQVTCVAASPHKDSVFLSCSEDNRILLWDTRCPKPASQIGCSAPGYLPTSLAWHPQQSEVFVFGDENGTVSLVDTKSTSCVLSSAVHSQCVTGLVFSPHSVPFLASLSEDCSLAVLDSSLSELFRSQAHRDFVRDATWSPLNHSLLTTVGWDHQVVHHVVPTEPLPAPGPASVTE
Protocol: PRMT5-MEP50 Enzyme Methylation Assay (Version A)
PRMT5-MEP50 biochemical assay is a direct measurement of the methylation activity of the enzyme complex on a short peptide substrate derived from the N-terminus of H4 histone. Methylation experiment was performed with recombinant PRMT5-MEP50 protein complex. The assessment of inhibitory effect of small molecules was measured by the effectiveness of the compounds to inhibit this reaction (EC50).
In this assay, the potency (EC50) of each compound was determined from a twenty-point (1:2 serial dilution; top compound concentration of 100000 nM) titration curve using the following outlined procedure. To each well of a white ProxiPlus 384 well-plate, 100 nL of compound (1% DMSO in final assay volume of 10 μL) was dispensed, followed by the addition of 8 μL of 1× assay buffer (50 mM Bicine pH 8.0, 1 mM DTT, 0.004% Tween20, 0.01% BSA) containing 1.25 nM of Full-length (FL)-PRMT5-MEP50 enzyme complex (recombinant proteins from baculovirus-transfected Sf21 cells: FL-PRMT5; MW=[…] and FL-MEP50; MW=38614) and 1 μL of 150 μM S-(5′-Adenosyl)-L-Methionine Chloride (SAM). A plate was sealed and placed in a 37° C. humidified chamber for a 60 minutes pre-incubation with compound. Subsequently, each reaction was initiated by the addition of 1 μL 1× assay buffer containing 750 nM biotinylated H4R3 (MeI) peptide. The final reaction in each well of 10 μL consists of 1.0 nM PRMT5-MEP50, 75 nM biotinylated-peptide, and 15 μM SAM. Methylation reactions were allowed to proceed for 150 minutes in a sealed plate at 37° C. Reactions were immediately quenched by the addition of 1 μL of 5% formic acid. A plate was then frozen and shipped to SAMDI™ Tech Inc. to determine the percent conversion from H4R3 (MeI) to H4R3 (Me2). Dose-response curves were generated by plotting percent effect (% product conversion; Y-axis) vs. Log 10 compound concentrations (X-axis). EC50 values were determined by non-linear regression according to models for either sigmoidal (4 parameters) or biphasic (7 parameters) dose-response curves.

PRMT5 = target: T2, PRMT5 (Homo sapiens, UniProt O14744); assay: PRMT5 Cell Target Engagement (TE) Assay; format: cell-based; details: MCF-7 cells, treated for 3 days, symmetric dimethylation of arginine (SDMA) by high content imaging
T2 construct: seeded with 4000 MCF-7 cells in 30 μl media; endogenous in cells; host or cells: MCF-7 cells
T2 sequence (O14744 whole entry): as the sequence (O14744 whole entry) above
T2 sequence (Q9BQA1 whole entry partner): as the sequence (Q9BQA1 whole entry partner) above
Outline: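 MCF-7 cells treated 3 days at 37 °C with a ten-point 1:3 titration from 10000 nM. Fixed cells immunostained with anti-SDMA and Alexa488 secondary; nuclear fluorescence quantified by high-content imaging versus DMSO wells, with IC50 from a 4-parameter fit.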

[2] = target: T1, PRMT5-MEP50 enzyme complex; assay: PRMT5-MEP50 Enzyme Methylation Assay (Version B); format: biochemical
Outline: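 Recombinant full-length PRMT5-MEP50 (0.5 nM, Sf21-expressed) pre-incubated 30 min at 37 °C with compound (20-point, 1:2, top 100000 nM), then reacted 150 min at 37 °C with 75 nM biotinylated H4R3 peptide and 15 μM SAM in Bicine pH 8.0. Formic acid quench; SAMDI MS conversion to Me2; EC50 by sigmoidal or biphasic fit.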

[3] = only one EC50 shown: 4 parameters single site sigmoidal model, 60 min pre-incubation with SAM, read-out: Enzyme Methylation Assay Version A (EC50)
[4] = first of two EC50s: 7 parameters biphasic model, read-out: Enzyme Methylation Assay Version A (EC50_1)
[5] = second of two EC50s: 7 parameters biphasic model, read-out: Enzyme Methylation Assay Version A (EC50_2)
[6] = first of two EC50s: 7 parameters biphasic model, read-out: Enzyme Methylation Assay Version B (EC50_1)
[7] = second of two EC50s: 7 parameters biphasic model, read-out: Enzyme Methylation Assay Version B (EC50_2)

Cc1nc(C)c(-c2cnc3nc(C(=O)N4CC[C@H](N5CCc6ccccc6C5)[C@@H](O)C4)cn3c2)s1 [Example 56, [(3S,4S)-4-(3,4-dihydroisoquinolin-2(1H)-yl)-3-hydroxypiperidin-1-yl][6-(2,4-dimethyl-1,3-thiazol-5-yl)imidazo[1,2-a]pyrimidin-2-yl]methanone]
EC50 [1, 3]: 0.4 nM | EC50 (PRMT5): 1.8 nM

O=C(c1cn2cc(Br)c(O)nc2n1)N1CC[C@H](N2CCc3ccccc3C2)[C@@H](O)C1 [Example 70, (6-bromo-7-hydroxyimidazo[1,2-a]pyrimidin-2-yl)((3S,4S)-4-(3,4-dihydroisoquinolin-2(1H)-yl)-3-hydroxypiperidin-1-yl)methanone]
EC50 [1, 4]: ~45 nM | EC50 [1, 5]: 86100 nM | EC50 (PRMT5): > 10000 nM

O=C(c1cn2cc(Br)cc(I)c2n1)N1CC[C@H](N2CCc3ccccc3C2)[C@@H](O)C1 [Example 139, (6-bromo-8-iodoimidazo[1,2-a]pyridin-2-yl)[(3S,4S)-4-(3,4-dihydroisoquinolin-2(1H)-yl)-3-hydroxypiperidin-1-yl]methanone]
EC50 [1, 3]: 1.3 nM | EC50 (PRMT5): 7.6 nM

Cc1cc(Cl)c2nc(C(=O)N3CC[C@H](N4CCc5ccccc5C4)[C@@H](O)C3)cn2c1 [Example 136, (8-chloro-6-methylimidazo[1,2-a]pyridin-2-yl)[(3S,4S)-4-(3,4-dihydroisoquinolin-2(1H)-yl)-3-hydroxypiperidin-1-yl]methanone]
EC50 [1, 4]: 1.2 nM | EC50 [1, 5]: 79 nM | EC50 (PRMT5): 50 nM

CC(=O)N1CCC(Nc2cc(C(=O)N3CCC(N4CCc5ccccc5C4)C(O)C3(C)C)ccn2)CC1 (single isomer, unassigned) [Example 23, l-(4-((4-(4-(3,4-dihydroisoquinolin-2(1H)-yl)-3-hydroxy-2,2-dimethylpiperidine-1-carbonyl)pyridin-2-yl)amino)piperidin-1-yl)ethan-1-one]
EC50 [1, 4]: ~36 nM | EC50 [1, 5]: 31600 nM | EC50 (PRMT5): 4690 nM

CC1(C)CC(C2Oc3ccc(C(=O)N4CC[C@H](N5CCc6ccccc6C5)[C@@H](O)C4)cc3NC2=O)CO1 (single isomer, unassigned) [Example 85]
EC50 [1, 3]: 1.3 nM | EC50 (PRMT5): 6.4 nM

CCN1CCNc2cc(C(=O)N3CC[C@H](N4CCc5ccccc5C4)[C@@H](O)C3)ccc2C1=O [Example 64, 8-((3S,4S)-4-(3,4-dihydroisoquinolin-2(1H)-yl)-3-hydroxypiperidine-1-carbonyl)-4-ethyl-1,2,3,4-tetrahydro-5H-benzo[e][1,4]diazepin-5-one]
EC50 [1, 4]: 1.9 nM | EC50 [1, 5]: 1660 nM | EC50 (PRMT5): 45 nM

O=C(c1ccc(C(=O)N2C3CCC2COC3)cc1)N1CC[C@@H](N2CCc3ccccc3C2)[C@H](O)C1 [Example 36, (4-(3-oxa-8-azabicyclo[3.2.1]octane-8-carbonyl)phenyl)((3R,4R)-4-(3,4-dihydroisoquinolin-2(1H)-yl)-3-hydroxypiperidin-1-yl)methanone]
EC50 [2, 6]: ~552 nM | EC50 [2, 7]: > 100000 nM | EC50 (PRMT5): > 10000 nM

CC1(C)OC(=O)Nc2cc(C(=O)N3CC[C@@H](N4CCc5ccccc5C4)[C@H](O)C3)ccc21 [Example 98, 7-((3R,4R)-4-(3,4-dihydroisoquinolin-2(1H)-yl)-3-hydroxypiperidine-1-carbonyl)-4,4-dimethyl-1,4-dihydro-2H-benzo[d][1,3]oxazin-2-one]
EC50 [2, 6]: ~118 nM | EC50 [2, 7]: > 100000 nM | EC50 (PRMT5): 5830 nM

O=C(c1ccc(C(=O)N2C3CCC2COC3)cc1)N1CC[C@@H](N2CCc3ccc(F)cc3C2)[C@H](O)C1 [Example 42]
EC50 [2, 6]: 12400 nM | EC50 [2, 7]: > 100000 nM | EC50 (PRMT5): > 10000 nM

O=C(c1ccc(C(=O)N2C3CCC2COC3)cc1)N1CC[C@H](N2CCc3cc(F)ccc3C2)[C@@H](O)C1 [Example 39, (4-(3-oxa-8-azabicyclo[3.2.1]octane-8-carbonyl)phenyl)((3S,4S)-4-(6-fluoro-3,4-dihydroisoquinolin-2(1H)-yl)-3-hydroxypiperidin-1-yl)methanone]
EC50 [2, 6]: 31200 nM | EC50 [2, 7]: > 100000 nM | EC50 (PRMT5): > 10000 nM

CC(=O)N1CCC(Nc2cc(C(=O)N3CC[C@H](N4CCc5ccccc5C4)[C@@H](O)C3)ccn2)C(F)(F)C1 (single isomer, unassigned) [Example 7]
EC50 [2, 6]: 16 nM | EC50 [2, 7]: 8570 nM | EC50 (PRMT5): 326 nM

O=C(c1ccc(OCC(F)(F)F)nc1)N1CCC(N2Cc3ccccc3C(F)(F)C2)C(O)C1 (single isomer, unassigned) [Example 26, (-4-(4,4-difluoro-3,4-dihydroisoquinolin-2(1H)-yl)-3-hydroxypiperidin-1-yl)(6-(2,2,2-trifluoroethoxy)pyridin-3-yl)methanone]
EC50 ([2]; only one EC50 shown: 4 parameters single site sigmoidal model, 30 min pre-incubation, read-out: Enzyme Methylation Assay Version B (EC50)): 15200 nM | EC50 (PRMT5): > 10000 nM

CC1OC(=O)Nc2cc(C(=O)N3CC[C@H](N4CCc5ccccc5C4)[C@@H](O)C3)c(F)cc21 (single isomer, unassigned) [Example 100]
EC50 [2, 6]: 4.8 nM | EC50 [2, 7]: 1720 nM | EC50 (PRMT5): 15 nM

O=C(c1ccc(C(=O)N2C3CCC2COC3)cc1)N1CC[C@H](N2CCc3c(F)cccc3C2)[C@@H](O)C1 [Example 37, (4-(3-oxa-8-azabicyclo[3.2.1]octane-8-carbonyl)phenyl)((3S,4S)-4-(5-fluoro-3,4-dihydroisoquinolin-2(1H)-yl)-3-hydroxypiperidin-1-yl)methanone]
EC50 [2, 6]: ~87 nM | EC50 [2, 7]: 28600 nM | EC50 (PRMT5): 1850 nM

CCC1Oc2ccc(C(=O)N3CC[C@H](N4CCc5ccccc5C4)[C@@H](O)C3)cc2NC1=O (single isomer, unassigned) [Example 11]
EC50 [2, 6]: 1.8 nM | EC50 [2, 7]: 1070 nM | EC50 (PRMT5): 4.9 nM

O=C(c1ccn(CC(F)(F)F)c(=O)c1)N1CC[C@H](N2CCc3ccccc3C2)[C@@H](O)C1 [Example 31, 4-((3S,4S)-4-(3,4-dihydroisoquinolin-2(1H)-yl)-3-hydroxypiperidine-1-carbonyl)-1-(2,2,2-trifluoroethyl)pyridin-2(1H)-one]
EC50 [2, 6]: ~30 nM | EC50 [2, 7]: 34300 nM | EC50 (PRMT5): 405 nM

O=C(c1ccc(C(=O)N2C3CCC2COC3)cc1)N1CC[C@H](N2CCc3ccccc3C2)[C@@H](O)C1 [Example 35]
EC50 [2, 6]: 6.6 nM | EC50 [2, 7]: 2580 nM | EC50 (PRMT5): 68 nM

CC1(C)CC(=O)Nc2cc(C(=O)N3CC[C@H](N4CCc5ccccc5C4)[C@@H](O)C3)ccc21 [Example 96, 7-((3S,4S)-4-(3,4-dihydroisoquinolin-2(1H)-yl)-3-hydroxypiperidine-1-carbonyl)-4,4-dimethyl-3,4-dihydroquinolin-2(1H)-one]
EC50 [2, 6]: ~14 nM | EC50 [2, 7]: 15100 nM | EC50 (PRMT5): 331 nM

CC(=O)N1CCC(Nc2cc(C(=O)N3CC[C@H](N4CCc5ccccc5C4)[C@@H](O)C3)c(F)cn2)C(F)(F)C1 (single isomer, unassigned) [Example 87]
EC50 [2, 6]: 8.6 nM | EC50 [2, 7]: 7240 nM | EC50 (PRMT5): 59 nM

CCOc1cc(C(=O)N2C3CCC2COC3)ccc1C(=O)N1CC[C@@H](N2CCc3ccccc3C2)[C@H](O)C1 [Example 34, (4-(3-oxa-8-azabicyclo[3.2.1]octane-8-carbonyl)-2-ethoxyphenyl)((3R,4R)-4-(3,4-dihydroisoquinolin-2(1H)-yl)-3-hydroxypiperidin-1-yl)methanone]
EC50 [2, 6]: ~38 nM | EC50 [2, 7]: 20600 nM | EC50 (PRMT5): 2220 nM
